This is an account of results in US20120329761A1, “USE OF TIGECYCLINE FOR TREATMENT OF CANCER” (UNIVERSITY HEALTH NETWORK, priority 2010, published 2012).

Bounds are passed on as bounds.

The nature of data set [1]: PK study in mice, single dose i.p. The data set is classed as in vivo. To be noted: mouse, serum, ip, single dose 50 mg/kg i.p.
For another data set, the system named is M9-ENL1 cells. The experiment in a line: Chemical library screen, MTS assay. The class given is cell-based, human. To be noted: 10 μM, 48 hours. The source says:
(§1) To identify compounds active against leukemia stem cells, a library of drugs (n=312) with well-characterized pharmacokinetics and toxicology and a wide therapeutic window was compiled. This library was then screened to identify agents that reduced the viability of TEX and M9-ENL1 cells. TEX and M9-ENL1 cells were derived from lineage-depleted human cord blood cells (Lin-CB) transduced with TLS-ERG or MLL-ENL oncogenes, respectively, and, as shown previously, display properties of stem cells including hierarchal differentiation and marrow repopulation^14,16. In this screen, TEX and M9-ENL1 cells were treated with aliquots of the compounds. After incubation, cell growth and viability was measured by the MTS assay. From this screen, tigecycline was identified.
(§2) TEX, and M9-ENL-1 cells were seeded into 96-well polystyrene tissue culture plates (Corning). […] 72 (TEX) and 48 (M9-ENL-1) hours after incubation, cell growth and viability was measured by MTS assay. […]
(§3) Cell growth and viability was assessed by the MTS assay (Promega, Madison, Wis.) according to the manufacturer's instructions. Apoptosis and cell death was measured by Annexin V-fluoroscein isothiocyanate (FITC; Biovision Research Products, Mountain View, Calif.), propidium iodide staining and flow cytometry according to the manufacturer's instructions and as previously described^30. […]

A further data set has as its system TEX cells. Description: Chemical library screen, MTS assay. The data set is classed as cell-based, human. To be noted: 10 μM, 72 hours.
Description: as §1, §2, §3
Background: Tetrazolium assays rely on reduction of a dye to a coloured formazan, in cell work by metabolically active cells.

The test system of data set [2] is primary AML patient samples. The experiment in a line: Methylcellulose colony formation assay. The class given is cell-based, human. To be noted: 5 μM, primary AML n=7, colonies at 7 days. How it is done: (§4) FIG. 2. Tigecycline induces cell death and inhibits clonogenic growth in primary AML cells preferential over normal hematopoietic cells. Mononuclear cells from peripheral blood of leukemia patients (blast count >80%) and normal G-CSF expanded donors was treated with increasing concentrations of tigecycline for 48 hours. Cell viability was measured by Annexin-PI flow cytometry staining. Cell viability is expressed as a mean percentage plus or minus SD (n=3) relative to DMSO-treated cells. Mononuclear cells from primary AML patient samples (A, B) and normal peripheral blood cells (C) were plated in methylcelluose with 5 μM of Tigecycline. (D) Colony forming units were counted at 7 days (AML) and 14 days (Normal) post plating. […]
(§5) To assess clonogenic growth, primary AML cells (1.0×10^5/mL) or granulocyte colony-stimulating factor (G-CSF) mobilized PBSCs (1.0×10^5/mL) were plated in duplicate with increasing concentrations of tigecycline in MethoCult GF H4434 medium (StemCell Technologies, Vancouver, BC) containing 1% methycellulose in IMDM, 30% FCS, 1% bovine serum albumin, 3 U/mL of recombinant human erythropoietin, 10^−4 M of 2-mercaptoethanol, 2 mM of L-glutamine, 50 ng/mL of recombinant human stem cell factor, 10 ng/mL of GM-CSF, and 10 ng/mL of rh IL-3). Seven days (AML samples) or 14 days (normal PBCS) after plating, the number of colonies was counted as previously described^31.

The subject of data set [3] is normal hematopoietic cells. Description: Methylcellulose colony formation assay. The class given is cell-based, human. The note with it: 5 μM, normal hematopoietic cells n=5, colonies at 14 days. Here is the method:
as §4, §5

The test system of data set [4] is primary AML patient samples. Description: Cell death by Annexin V staining, 48 hours. The data set is classed as cell-based, human. Here is the method: (§6) FIG. 2. Tigecycline induces cell death and inhibits clonogenic growth in primary AML cells preferential over normal hematopoietic cells. Mononuclear cells from peripheral blood of leukemia patients (blast count >80%) and normal G-CSF expanded donors was treated with increasing concentrations of tigecycline for 48 hours. Cell viability was measured by Annexin-PI flow cytometry staining. Cell viability is expressed as a mean percentage plus or minus SD (n=3) relative to DMSO-treated cells. Mononuclear cells from primary AML patient samples (A, B) and normal peripheral blood cells (C) were plated in methylcelluose with 5 μM of Tigecycline. (D) Colony forming units were counted at 7 days (AML) and 14 days (Normal) post plating. Percent colony formation is represented compared to DMSO-treated plated cells.
(§7) Primary human acute myeloid leukemia (AML) samples were isolated from fresh peripheral blood samples of consenting patients with AML. Similarly, primary normal hematopoietic cells were obtained from healthy consenting volunteers donating peripheral blood […] (PBSC) for stem cell transplantation. The mononuclear cells were isolated from the samples by Ficoll density centrifugation. Primary cells were cultured at 37° C. in IMDM supplemented with 20% FCS, 1 mM of L-glutamine and appropriate antibiotics. […]
(§8) Cell growth and viability was assessed by the MTS assay (Promega, Madison, Wis.) according to the manufacturer's instructions. Apoptosis and cell death was measured by Annexin V-fluoroscein isothiocyanate (FITC; Biovision Research Products, Mountain View, Calif.), propidium iodide staining and flow cytometry according to the manufacturer's instructions and as previously described^30.
(§9) Given the cytotoxicity of tigecycline towards leukemia cell lines, the ability of tigecycline to induce cell death in primary acute myeloid leukemia (AML) patient samples and normal hematopoietic cells was compared and evaluated. […] After incubation, cell viability was measured by Annexin V staining.

The subject of data set [5] is primary normal hematopoietic cells (PBSC). Description: Cell death by Annexin V staining, 48 hours. The class given is cell-based, human. The note with it: normal PBSC from G-CSF mobilized donors, n=5, 48 hours. Here is the method: as §6, §7, §8, §9
Data set [6] relates to Cox-1, Cox-2, and Cox-4 mRNA. The experiment in a line: Quantitative RT-PCR of Cox mRNA. The data set is classed as cell-based, human. To be noted: TEX and primary AML cells, 2.5 μM and 5 μM. Here is the method: FIG. 4. […] (A) Cells from TEX, OCI-AML2 and two primary AML patients were treated with increasing concentrations (2.5 μM and 5 μM) of tigecycline for 36 and 48 hours of tigecycline. Total proteins were extracted and analyzed by western blotting for Cox-1, Cox-2, Cox-4, grp78, XIAP, actin and tubulin. (B) TEX and AML patient cells were treated with increasing concentrations (2.5 μM and 5 μM) of tigecycline. Cox-1, Cox-2, and Cox-4 mRNA expression relative 18S was determined by quantitative RT-PCR. Data is shown as mean±SD. (C) TEX cells were treated with increasing concentrations of tigecycline and chloramphenicol (CAP) for 72 hours. Complex I, II and IV enzyme activity relative to citrate synthase activity was determined as described in materials and methods. (D) Cells from TEX, primary AML patients, and normal donors were treated with increasing concentrations of tigecycline. Mitochondrial membrane potential (Δψ) was determined by staining cells with JC-1 dye, and flow cytometry analysis (Red/Green ratio). Reactive oxygen species generation (ROS) was determined by staining with h2-DCFDA and Dihydroethidium (DHE).

The conditions of data set [7]: rat, in vivo, 30 mg/kg/day; cited from earlier work.
Data set [8] deals with bacterial protein synthesis. To be noted: cited from earlier work.

Usually Tmax stands for the time from dosing to the highest level. What is called half-life is the time needed for the level to fall by half in the phase considered. For the compound `CN(C)c1cc(NC(=O)CNC(C)(C)C)c(O)c2c1C[C@H]1C[C@H]3[C@H](N(C)C)C(O)=C(C(N)=O)C(=O)[C@@]3(O)C(O)=C1C2=O` [tigecycline], in [1], the time to peak (Tmax) was about 0.5 h. Also, the half-life in data set [1] is about 4.5 h. Besides, the “screen result, cell growth and viability” value in the data set on M9-ENL1 cells and with TEX cells was “identified” each time. In addition, the “reduction of clonogenic growth” value in data set [2] came out at 93±4%; in [3], 34±5%. Moreover, the LD50 is over 9 µM in [4] (more resistant group of patients, n=7, 48 hours); 5 µM in data set [4] (sensitive subset of leukemia patients, n=13, 48 hours); over 10 µM in data set [5]. Also, the “Cox-1, Cox-2, Cox-4 mRNA expression relative 18S” value in data set [6] is “preferential increased mRNA expression of mitochondrial-encoded genes Cox-1, Cox-2, over the nuclear-encoded gene Cox-4”. In addition, the toxicology findings result in data set [7] is “reversible anemia, thrombocytopenia, and leucopenia with a hypocellular bone marrow”. Besides, the “inhibition of bacterial protein synthesis, fold greater than minocycline” value in data set [8] (relative to minocycline) is listed as 3 fold. Moreover, the “inhibition of bacterial protein synthesis, fold greater than tetracycline” value in [8] (relative to tetracycline) is on record as 20 fold.
